Data reported in US9546164B2 (GENENTECH, INC., priority 2013, dated 2017).
Structures can show the parent of a compound that is named as a salt.

These molecules were tested against hNav1.7 (Homo sapiens (Human), UniProt Q15858) (assay: Tritiated sulfonamide competitive binding to membranes from cells expressing hNav1.7 and the β1 subunit). Conditions: not given.
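Note: Filter-bound radioactivity counted by liquid scintillation, nonspecific binding defined with excess unlabelled ligand, IC50 fitted to percent inhibition of specific binding.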

Sequence of hNav1.7 (Q15858 other isoform, or with tags, fused parts or gaps): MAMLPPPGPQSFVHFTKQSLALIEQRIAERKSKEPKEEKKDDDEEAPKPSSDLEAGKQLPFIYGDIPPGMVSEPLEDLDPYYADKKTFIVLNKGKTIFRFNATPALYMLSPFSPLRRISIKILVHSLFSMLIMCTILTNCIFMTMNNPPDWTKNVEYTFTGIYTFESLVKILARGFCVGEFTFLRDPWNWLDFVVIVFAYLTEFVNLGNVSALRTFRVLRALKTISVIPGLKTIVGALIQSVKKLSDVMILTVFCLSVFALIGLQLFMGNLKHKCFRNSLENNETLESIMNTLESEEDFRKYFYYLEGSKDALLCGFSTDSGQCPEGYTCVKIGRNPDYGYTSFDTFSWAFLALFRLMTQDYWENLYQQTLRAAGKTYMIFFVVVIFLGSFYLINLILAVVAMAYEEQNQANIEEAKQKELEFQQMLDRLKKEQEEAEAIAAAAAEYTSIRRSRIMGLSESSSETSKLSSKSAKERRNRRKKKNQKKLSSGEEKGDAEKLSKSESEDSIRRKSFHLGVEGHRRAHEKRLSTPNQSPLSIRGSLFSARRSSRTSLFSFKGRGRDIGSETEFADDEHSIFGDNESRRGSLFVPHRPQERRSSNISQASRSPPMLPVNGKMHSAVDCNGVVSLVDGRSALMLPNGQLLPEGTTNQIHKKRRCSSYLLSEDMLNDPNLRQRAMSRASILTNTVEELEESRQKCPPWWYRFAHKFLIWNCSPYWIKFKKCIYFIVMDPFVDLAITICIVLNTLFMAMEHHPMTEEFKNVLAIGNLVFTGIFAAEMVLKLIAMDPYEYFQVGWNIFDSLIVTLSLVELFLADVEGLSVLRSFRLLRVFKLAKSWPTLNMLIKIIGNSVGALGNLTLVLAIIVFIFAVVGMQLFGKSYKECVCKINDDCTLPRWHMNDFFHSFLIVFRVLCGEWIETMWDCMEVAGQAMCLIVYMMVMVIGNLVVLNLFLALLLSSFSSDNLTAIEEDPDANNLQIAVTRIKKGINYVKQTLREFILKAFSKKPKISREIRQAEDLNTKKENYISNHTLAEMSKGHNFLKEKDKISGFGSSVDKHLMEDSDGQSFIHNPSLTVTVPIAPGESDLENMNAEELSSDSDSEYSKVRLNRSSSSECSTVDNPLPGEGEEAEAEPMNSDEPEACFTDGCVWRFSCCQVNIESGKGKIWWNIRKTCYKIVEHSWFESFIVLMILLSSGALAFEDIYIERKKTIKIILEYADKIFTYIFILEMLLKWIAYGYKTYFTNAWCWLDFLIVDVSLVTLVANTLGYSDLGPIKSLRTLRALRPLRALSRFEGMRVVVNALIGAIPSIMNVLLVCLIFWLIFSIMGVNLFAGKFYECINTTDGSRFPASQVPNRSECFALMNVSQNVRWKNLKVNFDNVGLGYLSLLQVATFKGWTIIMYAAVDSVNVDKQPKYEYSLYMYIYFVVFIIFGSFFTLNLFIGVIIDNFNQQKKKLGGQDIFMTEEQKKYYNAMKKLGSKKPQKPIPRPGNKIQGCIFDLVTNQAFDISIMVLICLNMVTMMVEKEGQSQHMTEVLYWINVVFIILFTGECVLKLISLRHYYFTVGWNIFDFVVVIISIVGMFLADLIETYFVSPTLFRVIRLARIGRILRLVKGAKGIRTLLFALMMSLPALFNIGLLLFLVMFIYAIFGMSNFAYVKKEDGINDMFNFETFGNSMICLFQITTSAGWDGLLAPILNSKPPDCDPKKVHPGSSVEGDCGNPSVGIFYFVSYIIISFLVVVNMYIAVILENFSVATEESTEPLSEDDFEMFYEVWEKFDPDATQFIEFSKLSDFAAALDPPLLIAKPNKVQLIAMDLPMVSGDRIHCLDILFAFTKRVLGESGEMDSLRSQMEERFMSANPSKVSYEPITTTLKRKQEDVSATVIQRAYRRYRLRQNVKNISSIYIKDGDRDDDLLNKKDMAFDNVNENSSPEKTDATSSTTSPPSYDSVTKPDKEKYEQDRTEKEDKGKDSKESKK
Sequence of hNav1.7 (Q07699 19-218 partner): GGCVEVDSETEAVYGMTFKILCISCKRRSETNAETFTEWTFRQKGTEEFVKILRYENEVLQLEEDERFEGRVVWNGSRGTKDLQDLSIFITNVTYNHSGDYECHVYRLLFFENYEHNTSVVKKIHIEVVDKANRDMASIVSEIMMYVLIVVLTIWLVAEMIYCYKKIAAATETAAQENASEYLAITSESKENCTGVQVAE

Question: For `O=C(NS(=O)(=O)C1CC1)c1cc(C2CC2)c(O[C@@H]2CCCN(Cc3ccc(F)cc3F)C2)cc1F` [Example 9, (R)-5-cyclopropyl-N-(cyclopropylsulfonyl)-4-((1-(2,4-difluorobenzyl)-piperidin-3-yl)oxy)-2-fluorobenzamide], which IC50 is on record?
Answer: 3.5 nM

Question: How did the IC50 turn out when `O=C(NS(=O)(=O)C1CC1)c1cc(C2CC2)c(CN2CCC(Oc3cc(Cl)cc(OC(F)(F)F)c3)CC2)cc1F` [Example 549, 4-((4-(3-chloro-5-(trifluoromethoxy)phenoxy)piperidin-1-yl)methyl)-5-cyclopropyl-N-(cyclopropylsulfonyl)-2-fluorobenzamide, trifluoroacetic acid salt] was run?
Answer: 4.4 nM

Question: For `CS(=O)(=O)NC(=O)c1cc(C2CC2)c(O[C@@H]2CCCN(Cc3c(Cl)cccc3Cl)C2)cc1F` [Example 10, (R)-5-cyclopropyl-4-((1-(2,6-dichlorobenzyl)piperidin-3-yl)oxy)-2-fluoro-N-(methylsulfonyl)benzamide], which IC50 is on record?
Answer: 4.1 nM

Question: Which IC50 does the source give for `CS(=O)(=O)NC(=O)c1cc(C2CC2)c(CN2CCC(Oc3cc(C(F)(F)F)cc(Cl)c3F)CC2)cc1F` [Example 536, 4-((4-(3-Chloro-2-fluoro-5-(trifluoromethyl)phenoxy)piperidin-1-yl)methyl)-5-cyclopropyl-2-fluoro-N-(methylsulfonyl)benzamide, trifluoroacetic acid salt] here?
Answer: 5 nM

Question: For `O=C(NS(=O)(=O)C1CC1)c1cc(C2CC2)c(CN2CCC(Oc3ccc(Cl)cc3Cl)CC2)cc1F` [Example 547, 5-cyclopropyl-N-(cyclopropylsulfonyl)-4-((4-(2,4-dichlorophenoxy)piperidin-1-yl)methyl)-2-fluorobenzamide, trifluoroacetic acid salt], which IC50 is on record?
Answer: 8.2 nM

Same assay, conditions: read-out: Ligand Binding Assay; 100 pM [3H]compound, membranes with hNav1.7 and β1 subunit, 18 h, room temperature

Question: `CS(=O)(=O)NC(=O)c1cc(C2CC2)c(OCC2CCN(Cc3cc(Cl)cc(Cl)c3F)CC2)cc1F` [Example 242, 5-Cyclopropyl-4-((1-(3,5-dichloro-2-fluorobenzyl)piperidin-4-yl)methoxy)-2-fluoro-N-(methylsulfonyl)benzamide] was tested. Which IC50 did it give?
Answer: 3 nM

Question: With `CS(=O)(=O)NC(=O)c1cc(C2CC2)c(OCC2CN(C(c3ccccc3)c3ccccn3)C2)cc1F` (stereo in doubt) [Example 119, (S)-5-Cyclopropyl-2-fluoro-N-(methylsulfonyl)-4-((1-(phenyl(pyridin-2-yl)methyl)azetidin-3-yl)methoxy)benzamide] as the molecule, how does the IC50 read?
Answer: 306 nM

Question: `C[C@H](c1cc(Cl)cc(Cl)c1)N1CCC(C#N)(COc2cc(F)c(C(=O)NS(C)(=O)=O)cc2C2CC2)CC1` [Example 597] was tested. Which IC50 did it give?
Answer: 27.6 nM

Question: For `CC1(COc2cc(F)c(C(=O)NS(C)(=O)=O)cc2C2CC2)CCN(c2cc(C(F)(F)F)c(Cl)cn2)CC1` [Example 556, 4-((1-(5-chloro-4-(trifluoromethyl)pyridin-2-yl)-4-methylpiperidin-4-yl)methoxy)-5-cyclopropyl-2-fluoro-N-(methylsulfonyl)benzamide], which IC50 is on record?
Answer: 2.1 nM

Question: Which IC50 does the source give for `O=C(NS(=O)(=O)C1CC1)c1cc(C2CC2)c(OCC2CCN(C(=O)c3cccc(Cl)c3)CC2)cc1F` [Example 196, 4-((1-(3-Chlorobenzoyl)piperidin-4-yl)methoxy)-5-cyclopropyl-N-(cyclopropylsulfonyl)-2-fluorobenzamide] here?
Answer: 43 nM

Question: How did the IC50 turn out when `O=C(NS(=O)(=O)C1CC1)c1cc(C2CC2)c(OCC2CCN(S(=O)(=O)c3ccc(C(F)(F)F)cc3Cl)CC2)cc1F` [Example 385, 4-((1-((2-chloro-4-(trifluoromethyl)phenyl)sulfonyl)piperidin-4-yl)methoxy)-5-cyclopropyl-N-(cyclopropylsulfonyl)-2-fluorobenzamide] was run?
Answer: 10 nM

Question: With `CCOc1ccc(CN2CCC[C@@H](Oc3cc(F)c(C(=O)NS(C)(=O)=O)cc3C3CC3)C2)c(OCC)c1` [Example 428, (R)-5-cyclopropyl-4-((1-(2,4-diethoxybenzyl)piperidin-3-yl)oxy)-2-fluoro-N-(methylsulfonyl)benzamide, trifluoroacetic acid salt] as the molecule, how does the IC50 read?
Answer: 23.4 nM

Question: `C[C@@H](c1cccc(F)c1)N1CCC(C)(COc2cc(F)c(C(=O)NS(C)(=O)=O)cc2C2CC2)CC1` (single isomer, unassigned) [Example 251] was tested. Which IC50 did it give?
Answer: 49 nM

Question: How did the IC50 turn out when `CS(=O)(=O)NC(=O)c1cc(C2CC2)c(OCC2CCN(CCC(F)(F)F)CC2)cc1F` [Example 117, 5-Cyclopropyl-2-fluoro-N-(methylsulfonyl)-4-((1-(3,3,3-trifluoropropyl)piperidin-4-yl)methoxy)benzamide] was run?
Answer: 411 nM

Question: How did the IC50 turn out when `CS(=O)(=O)NC(=O)c1cc(C2CC2)c(OCC2CCN(Cc3ccccc3C#N)CC2)cc1F` [Example 149, 4-((1-(2-Cyanobenzyl)piperidin-4-yl)methoxy)-5-cyclopropyl-2-fluoro-N-(methylsulfonyl)benzamide] was run?
Answer: 73.7 nM

Question: Which IC50 does the source give for `Cc1cc(F)ccc1S(=O)(=O)N1CCC(COc2cc(F)c(C(=O)NS(=O)(=O)C3CC3)cc2C2CC2)CC1` [Example 387, 5-cyclopropyl-N-(cyclopropylsulfonyl)-2-fluoro-4-((1-((4-fluoro-2-methylphenyl)sulfonyl)piperidin-4-yl)methoxy)benzamide] here?
Answer: 13.3 nM

Question: `CCS(=O)(=O)NC(=O)c1cc(C2CC2)c(OCC2CCN([C@H](C)c3ccc(F)cc3Cl)CC2)cc1F` (single isomer, unassigned) [Example 246] was tested. Which IC50 did it give?
Answer: 7.7 nM

Question: How did the IC50 turn out when `O=C(NS(=O)(=O)C1CC1)c1cc(C2CC2)c(O[C@@H]2CCCN(Cc3cc(Cl)cc(Cl)c3)C2)cc1F` [Example 3, (R)-5-cyclopropyl-N-(cyclopropylsulfonyl)-4-((1-(3,5-dichlorobenzyl)piperidin-3-yl)oxy)-2-fluorobenzamide] was run?
Answer: 2.6 nM

Question: How did the IC50 turn out when `CS(=O)(=O)NC(=O)c1cc(C2CC2)c(OCC2CCN(S(=O)(=O)c3ccccc3C(F)(F)F)CC2)cc1F` [Example 370, 5-cyclopropyl-2-fluoro-N-(methylsulfonyl)-4-((1-((2-(trifluoromethyl)phenyl)sulfonyl)piperidin-4-yl)methoxy)benzamide] was run?
Answer: 30.8 nM

Question: How did the IC50 turn out when `CC1(COc2cc(F)c(C(=O)NS(C)(=O)=O)cc2C2CC2)CCN(C2(c3cc(Cl)cc(Cl)c3)COC2)CC1` [Example 178, 5-Cyclopropyl-4-((1-(3-(3,5-dichlorophenyl)oxetan-3-yl)-4-methylpiperidin-4-yl)methoxy)-2-fluoro-N-(methylsulfonyl)benzamide] was run?
Answer: 7.6 nM

Question: How did the IC50 turn out when `CS(=O)(=O)NC(=O)c1cc(C2CC2)c(OCC2CCN(S(=O)(=O)c3ccc(Br)c(F)c3)CC2)cc1F` [Example 368, 4-((1-((4-bromo-3-fluorophenyl)sulfonyl)piperidin-4-yl)methoxy)-5-cyclopropyl-2-fluoro-N-(methylsulfonyl)benzamide] was run?
Answer: 25.1 nM

Question: How did the IC50 turn out when `O=C(NS(=O)(=O)C1CC1)c1cc(C2CC2)c(OCC2CCN(C(=O)c3ccccc3C(F)(F)F)CC2)cc1F` [Example 256, 5-Cyclopropyl-N-(cyclopropylsulfonyl)-2-fluoro-4-((1-(2-(trifluoromethyl)benzoyl)piperidin-4-yl)methoxy)benzamide] was run?
Answer: 290 nM

Question: `CCS(=O)(=O)NC(=O)c1cc(C2CC2)c(OCC2(C)CN([C@H](C)c3cc(Cl)cc(Cl)c3)C2)cc1F` (single isomer, unassigned) [Example 288] was tested. Which IC50 did it give?
Answer: 3.5 nM

Question: `CS(=O)(=O)NC(=O)c1cc(C2CC2)c(OCC2CCN(Cc3cccc(F)c3)CC2)cc1F` [Example 88, 4-((1-(3-Fluorobenzyl)piperidin-4-yl)methoxy)-5-cyclopropyl-2-fluoro-N-(methylsulfonyl)benzamide] was tested. Which IC50 did it give?
Answer: 92.8 nM

Question: `COC(C)(C)[C@H](c1cc(Cl)cc(Cl)c1)N1CCC(COc2cc(F)c(C(=O)NS(C)(=O)=O)cc2C2CC2)CC1` (single isomer, unassigned) [Example 206] was tested. Which IC50 did it give?
Answer: 1.8 nM

Question: `CS(=O)(=O)NC(=O)c1cc(C2CC2)c(OCC2CCN(Cc3cc(F)c(Cl)cc3Cl)CC2)cc1F` [Example 453, 5-cyclopropyl-4-((1-(2,4-dichloro-5-fluorobenzyl)piperidin-4-yl)methoxy)-2-fluoro-N-(methylsulfonyl)benzamide, trifluoroacetic acid salt] was tested. Which IC50 did it give?
Answer: 3 nM

Question: With `CS(=O)(=O)NC(=O)c1cc(C2CC2)c(OCC2CCN(Cc3nc(-c4ccccc4Cl)no3)CC2)cc1F` [Example 410, 4-((1-((3-(2-chlorophenyl)-1,2,4-oxadiazol-5-yl)methyl)piperidin-4-yl)methoxy)-5-cyclopropyl-2-fluoro-N-(methylsulfonyl)benzamide, trifluoroacetic acid salt] as the molecule, how does the IC50 read?
Answer: 10.9 nM

Question: How did the IC50 turn out when `Cc1ccc(CN2CCC[C@@H](Oc3cc(F)c(C(=O)NS(C)(=O)=O)cc3C3CC3)C2)c(C)c1` [Example 423, (R)-5-cyclopropyl-4-((1-(2,4-dimethylbenzyl)piperidin-3-yl)oxy)-2-fluoro-N-(methylsulfonyl)benzamide, trifluoroacetic acid salt] was run?
Answer: 2.1 nM

Question: With `CS(=O)(=O)NC(=O)c1cc(C2CC2)c(OCC2CCN(Cc3ccc(Br)cc3F)CC2)cc1F` [Example 589, 4-((1-(4-bromo-2-fluorobenzyl)piperidin-4-yl)methoxy)-5-cyclopropyl-2-fluoro-N-(methylsulfonyl)benzamide] as the molecule, how does the IC50 read?
Answer: 11 nM

Question: Which IC50 does the source give for `CS(=O)(=O)NC(=O)c1cc(C2CC2)c(O[C@@H]2CCCN(Cc3cc(Cl)cc(OC(F)(F)F)c3)C2)cc1F` [Example 422, (R)-4-((1-(3-chloro-5-(trifluoromethoxy)benzyl)piperidin-3-yl)oxy)-5-cyclopropyl-2-fluoro-N-(methylsulfonyl)benzamide, trifluoroacetic acid salt] here?
Answer: 1.3 nM

Question: Which IC50 does the source give for `C[C@H](c1cc(F)cc(Cl)c1)N1CCC(COc2cc(F)c(C(=O)NS(C)(=O)=O)cc2C2CC2)CC1` (single isomer, unassigned) [Example 230] here?
Answer: 4.4 nM

Question: For `CS(=O)(=O)NC(=O)c1cc(C2CC2)c(OCC2CCN(C(=O)c3ccccc3C(F)(F)F)CC2)cc1F` [Example 255], which IC50 is on record?
Answer: 1100 nM

Question: `CS(=O)(=O)NC(=O)c1cc(C2CC2)c(OCC2CCN(S(=O)(=O)c3ccc4ccccc4c3)CC2)cc1F` [Example 388, 5-cyclopropyl-2-fluoro-N-(methylsulfonyl)-4-((1-(naphthalen-2-ylsulfonyl)piperidin-4-yl)methoxy)benzamide] was tested. Which IC50 did it give?
Answer: 16.3 nM
